Assay results: ChEMBL document CHEMBL1144954, “Synthesis and preliminary evaluation of (R,R)(S,S) 5-(2-(2-[4-(2-[(18)F]fluoroethoxy)phenyl]-1-methylethylamino)-1-hydroxyethyl)-benzene-1,3-diol ([(18)F]FEFE) for the in vivo visualisation and quantification of the beta2-adrenergic receptor status in lung” (Bioorg Med Chem Lett, 2003)

Assays:
[1] = Distribution in liver expressed as [18F]- organ uptake in % of injected activity/gram; assay type: ADME, tissue-based, Cavia porcellus; conditions: guinea pig
[2] = Distribution in spleen expressed as [18F]- organ uptake in % of injected activity/gram; assay type: ADME, tissue-based, Cavia porcellus; conditions: guinea pig
[3] = Distribution in lung expressed as [18F]- organ uptake in % of injected activity/gram; assay type: ADME, tissue-based, Cavia porcellus; conditions: guinea pig
[4] = Distribution in kidney expressed as [18F]- organ uptake in % of injected activity/gram; assay type: ADME, tissue-based, Cavia porcellus; conditions: guinea pig
[5] = target: Beta-2 adrenergic receptor (Cavia porcellus, UniProt Q8K4Z4); experiment: In vitro inhibitory concentration Beta-2 adrenergic receptor in Guinea pig trachea
[6] = Distribution in blood expressed as [18F]- organ uptake in % of injected activity/gram; assay type: ADME, tissue-based, Cavia porcellus; conditions: guinea pig
[7] = Distribution in heart expressed as [18F]- organ uptake in % of injected activity/gram; assay type: ADME, tissue-based, Cavia porcellus; conditions: guinea pig
[8] = Distribution in intestine expressed as [18F]- organ uptake in % of injected activity/gram; assay type: ADME, tissue-based, Cavia porcellus; conditions: guinea pig
[9] = Half-life was measured; assay type: ADME, Cavia porcellus; conditions: guinea pig
[10] = Distribution in brain expressed as [18F]- organ uptake in % of injected activity/gram; assay type: ADME, tissue-based, Cavia porcellus; conditions: guinea pig

Chain of Beta-2 adrenergic receptor (Q8K4Z4 whole entry): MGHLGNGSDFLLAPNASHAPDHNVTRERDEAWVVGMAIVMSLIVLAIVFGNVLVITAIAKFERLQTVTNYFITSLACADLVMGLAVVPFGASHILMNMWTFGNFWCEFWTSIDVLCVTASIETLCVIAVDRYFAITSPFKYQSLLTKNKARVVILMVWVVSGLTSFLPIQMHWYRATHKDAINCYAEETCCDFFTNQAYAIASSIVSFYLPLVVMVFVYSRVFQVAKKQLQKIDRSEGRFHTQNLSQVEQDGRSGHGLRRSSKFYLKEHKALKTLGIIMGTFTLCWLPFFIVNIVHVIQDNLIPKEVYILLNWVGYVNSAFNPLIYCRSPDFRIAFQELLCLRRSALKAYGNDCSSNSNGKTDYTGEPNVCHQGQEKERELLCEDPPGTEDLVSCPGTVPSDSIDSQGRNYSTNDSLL

CC(Cc1ccc(OCCF)cc1)NCC(O)c1cc(O)cc(O)c1 (stereo not given)
ID/g [1]: 0.95% | ID/g [2]: 0.84% | ID/g [3]: 1.16% | ID/g [4]: 0.7% | IC50 [5]: 60 nM | ID/g [6]: 0.22% | ID/g [7]: 0.49% | ID/g [8]: 0.77% | half-life [9]: 1.83 h | ID/g [10]: 0.02%
